The assay has as its system hypothalamic Notch signaling. As to the kind of experiment: Daily third-ventricle injection of DLL4 in obese mice implanted with DNIκBα-hNSC. It is filed as in vivo. On the procedure: In vivo implantation of hNSC with Notch inhibition counteracts obesity-T2D: Hypothalamic hNSC implantation was performed to investigate whether Notch inhibition could mimic IKKβ/NF-κB inhibition in counteracting obesity and related metabolic disorders. This investigation was also rationalized by the data showing that Notch signaling was robust (indicated by the active form of Notch 1 protein) in Sox2-positie cells of HFD-fed mice but not chow-fed mice (FIG. 7E). In the experiment, C57BL/6 mice received mediobasal hypothalamic injections of GFP-hNSC which carried Notch 1-4 shRNAs vs. control shRNA, and were then maintained on HFD vs. chow feeding. […] Thus, inhibition of Notch signaling can recapitulate the effect of NF-κB inhibition in the NSC implantation with respect to counteraction against HFD-induced obesity and metabolic disorders. Finally, hNSC implantation was employed to assess the IKKβ/NF-κB-Notch connection which was established in vitro. […] Therefore, NSC implantation can, at least, primarily employ neurogenetic program to counteract against metabolic disease, although other associated factors (such as inflammatory changes) probably also participate primarily or secondarily.

For “DLL4: Notch protein ligand DLL4, injected daily into the third ventricle”, for the setting “data not shown”, the DNIκBα-hNSC induced neurogenesis entry is “reversal of ^DNIκBα-hNSC induced neurogenesis” and the hypothalamic inflammation result was “not an induction of hypothalamic inflammation”. The “anti-obesity effect of DNIκBα-hNSC implantation” value (mice already obese via chronic HFD feeding) is “significantly abolished the anti-obesity effect”.

Values taken from patent US20180105863A1, “NEURAL STEM CELL THERAPY FOR OBESITY AND DIABETES” (ALBERT EINSTEIN COLLEGE OF MEDICINE, INC., priority 2012, published 2018).
